US20100311805A1, “COMBINATION OF HISTONE DEACETYLASE INHIBITORS AND RADIATION” (NOVARTIS AG, priority 2005, published 2010)

Legend:
cleaved caspase3 [1] = test: Western immunoblot for cleaved caspase3, H23 whole cell lysates; format: cell-based, human
Description: (§1) Western Immunoblots. LLC, H450 and H23 cells are serum starved overnight in DMEM/F-12 media (Gibco). Cells are then treated with 10 μM of Compound III for 1 hour and/or irradiated with 3 Gy. Cells are washed twice with PBS and lysis buffer ([…] Tris, 150 mM NaCl, 1 mM EDTA, 1% Triton X-100, 2.5 mM Na PP, 1 mM phenylmethylsulfonyl fluoride, and 1 μg/mL leupeptin) are added. Protein concentration are quantified by the Bio-Rad method. Twenty (20) μg of total protein are loaded into each well and separated by 7% or 10% SDS-PAGE gel, depending on the size of the target protein being investigated. The proteins are transferred onto nitrocellulose membranes (Hybond ECL; Amersham, Arlington Heights, Ill.) and probed with primary antibodies to caspase3, cleaved caspase3, phospho-Akt, Akt, PDGFR α and β (Cell Signaling; 1:1000). Blots are washed and probed with goat anti-rabbit secondary antibody (Sigma; 1:1000). Cleavage of caspase 3 was analyzed to verify the role of apoptosis in cells treated with LBH589 and radiation. Western blot analysis was performed on H23 and H460 whole cell lysates. […] LBH589 induced caspase3 cleavage. H23 and H460 cells were treated with 25 nM LBH589 for 18 hours then irradiated with 3 Gy. Six hours later, protein was extracted, quantified, run in a 12% SDS-polyacrylamide gel, transferred, and probed with antibodies to cleaved caspase3 and actin. […]

H460 cells = test: Tumor growth delay in H460 xenograft tumor model; format: in vivo, nude mice; settings: 10-fold increase in tumor volume as reference
Description: Tumor Volume Assessment. LLC, H450 and H23 cells are implanted into C57BL6 and nude mice, respectively. 106 viable cells suspended in 0.1 mL of cell medium are injected s.c. into the hind-limb. Each group of mice are comprised of 12 mice which are stratified into two groups to create approximately the same mean tumor volume. The mean volume of the tumors in mice at the time of treatment (day 0) with radiation, control, irradiated, LBH589 alone and LBH589 given prior to radiation are approximately 200 mm^3. Irradiated mice are immobilized with 140 μL of ketamine, and the entire body are shielded with lead, except for the tumor-bearing hind limb. A total dose of 21 Gy are administered in seven fractionated doses on days 0-4, 7 and 8. The LBH589 group receive of LBH589 administered p.o. via esophageal injection on days-1 and 6.
Tumor volumes were measured on days 0, 2, 4, 7, 9, 11, 14, 16, 18, 20 and 22 using skin calipers. Tumor volumes were calculated from a formula (a×b×c/2) that are derived from the formula for an ellipsoid (πd3/6). Data were calculated as the percentage of original (day 0) tumor volume and graphed as fractional tumor volume±SD for each treatment group. […]
H460 cells were injected in the hind limb of nude mice and allowed to grow for one week. […] B, shown is the mean tumor growth delay and standard error calculated using a 10-fold increase in tumor volume as reference.

cleaved caspase3 [2] = test: Western immunoblot for cleaved caspase3, H460 whole cell lysates; format: cell-based, human
Description: as §1

H23 cell line [3] = test: Nuclear morphology (pyknotic nuclei) by DAPI staining, H23; format: cell-based, human
Description: (§2) To confirm the ability of LBH589 to sensitize human lung cancer cell lines to radiation induced apoptosis, nuclear morphology studies were performed. […] DAPI staining of cells treated with LBH589 and IR. Cells were subcultured onto slides and treated with 25 nM LBH589 for 18 hours followed by 3 Gy. Eighteen (18) hours later cells were fixed and stained with DAPI. Shown is the percentage of pyknotic nuclei and standard error (n=3) determined by manual counts from microscopy. *P<0.05 compared to control.

H460 cell line [4] = test: Annexin V-FITC/PI flow cytometry analysis of apoptosis, H460; format: cell-based, human
Description: (§3) LBH589 enhances radiation induced apoptosis. To study the effect of HDAC inhibition by LBH589 on apoptosis three in vitro experiments were performed. FIG. 2 show results from Annexin V-FITC/PI flow cytometry analysis of apoptosis. H23 and H460 cells lines were treated with 25 nM LBH589 for 18 hrs then irradiated with 3 Gy. Twenty (20) hours later, cells were harvested, stained with Annexin-FITC and PI, and analyzed by flow cytometry. Shown is the number of apoptotic cells and standard error (n=3) for each treatment condition. *P<0.05 compared to control.

γ-H2AX foci [5] = test: γ-H2AX foci immunostaining, H460; format: cell-based, human
γ-H2AX foci [6] = test: γ-H2AX foci immunostaining, H23; format: cell-based, human
Description: LBH589 prolongs the duration of radiation induced γ-H2AX foci. Immunostaining was performed to study γ-H2AX foci present at DNA double strand breaks. […] The red staining of γ-H2AX foci and blue staining of the DAPI counterstain are shown. 3 Gy induced γ-H2AX foci as early as 30 minutes following treatment. These foci disappeared by 6 hrs in cell lines treated with IR alone. […] In comparison, LBH589 added 18 hours prior to IR prolonged the duration of γ-H2AX foci for up to 24 hours after IR (42 hours after LBH589 administration). […] LBH589 prolongs duration of γ-H2AX foci in irradiated lung cancer cells. H23 cell line received the indicated treatment of 25 nM LBH589 and/or 3 Gy. Anti-γ-H2AX antibody was used for immunostaining with rhodamine red labeled secondary antibody (red). Cells were counterstained with DAPI (blue). Shown are representative photographs of the H23 cells line (A) at the indicated time points after IR. Arrows point to apoptotic cells. B, shown is the mean and standard error of cells with γ-H2AX nuclear foci. *P<0.05 compared to control.

[7] = mouse, in vivo
Description: LBH589 enhances tumor growth delay in vivo. H460 cells were injected into the hind limb of mice. After tumor formation the mice were treated with two oral doses of 40 mg LBH589 and/or five 3 Gy fractions over seven days. […] IR alone delayed growth by approximately 4 days (P<0.001).

H460 cell line [8] = test: Nuclear morphology (pyknotic nuclei) by DAPI staining, H460; format: cell-based, human
Description: as §2

H460 cell lines = test: Clonogenic analysis of H460 cell lines with LBH589 and 0-6 Gy; format: cell-based, human
Description: Results. LBH589 sensitizes NSCLC to the cytotoxic effects of ionizing radiation. Clonogenic analysis of H460 cell lines was performed using LBH589 and 0-6 Gy. […] Cells were suspended, counted with a hemocytometer, and plated at specific cell densities. Once attached, cells were treated with LBH589 for 1 hour or 18 hours followed by 0, 2, 4, or 6 Gy. Media was changed after IR and the cells were allowed to proliferate for 10 days. Shown is the average and standard error of the relative fractions of colonies (n=3).

H23 cell line [9] = test: Annexin V-FITC/PI flow cytometry analysis of apoptosis, H23; format: cell-based, human
Description: as §3

HDAC4 [10] = test: HDAC4 immunostaining (compartmentalization), H23; format: cell-based, human; settings: LBH589 added prior to IR
Description: (§4) Immunostaining of HDAC4 was performed on H23 and H460 cell lines to identify the effect of LBH589 on HDAC4 compartmentalization. […] When H460 cells were treated with 3 Gy, HDAC4 localized to the nucleus at 2 hours and minimal HDAC4 was present in the cytoplasm.

HDAC4 [11] = test: HDAC4 immunostaining (compartmentalization), H460; format: cell-based, human
Description: as §4

[12] = 25 nM LBH589 18 hours prior to IR 3 Gy, 6 hours later
[13] = 25 nM LBH589 18 hours prior to 3 Gy, 18 hours later

Cc1[nH]c2ccccc2c1CCNCc1ccc(/C=C/C(=O)NO)cc1 [LBH589, N-hydroxy-3-[4-[[[2-(2-methyl-1H-indol-3-yl)-ethyl]-amino]methyl]phenyl]-2E-2-propenamide]
caspase3 cleavage, increase with LBH589 prior to IR (cleaved caspase3 [1]; [12]): not as prominent
caspase3 cleavage (cleaved caspase3 [1]; treatment with 25 nM LBH589): increase in caspase3 cleavage was evident
tumor growth delay (H460 cells; LBH589 alone, two oral doses of 40 mg over seven days): two
tumor growth delay (H460 cells; combined: two oral doses of 40 mg LBH589 and five 3 Gy fractions over seven days): approximately 20 days
caspase3 cleavage (cleaved caspase3 [2]; [12]): increased levels of caspase3 cleavage
caspase3 cleavage (cleaved caspase3 [2]; treatment with 25 nM LBH589): increase in caspase3 cleavage was evident
percentage of pyknotic nuclei (H23 cell line [3]; [13]): over 10%
apoptotic nuclei (H23 cell line [3]; LBH589 alone): 4%
number of apoptotic cells (H460 cell line [4]; 25 nM LBH589 18 hrs prior to 3 Gy, 20 hours later, control 6%): 25%
number of apoptotic cells (H460 cell line [4]; LBH589 alone 25 nM): only a minimal increase
cells with γ-H2AX nuclear foci at 24 hours (γ-H2AX foci [5]; 25 nM LBH589 alone): < 5%
residual γ-H2AX foci at 24 hours (γ-H2AX foci [5]; 25 nM LBH589 prior to IR 3 Gy): 60%
cells with γ-H2AX nuclear foci at 24 hours (γ-H2AX foci [6]; 25 nM LBH589 alone): < 5%
residual γ-H2AX foci at 24 hours (γ-H2AX foci [6]; 25 nM LBH589 prior to IR 3 Gy): 60%
duration of γ-H2AX foci after IR (γ-H2AX foci [6]; LBH589 added 18 hours prior to IR 3 Gy): up to 24 hours
γ-H2AX foci (γ-H2AX foci [6]; LBH589 alone for 20 hours): modest increase in γ-H2AX foci
signs of toxicity as monitored by weight loss and mobility [7]: minimal signs of toxicity
percentage of pyknotic nuclei (H460 cell line [8]; [13]): over 10%
apoptotic nuclei (H460 cell line [8]; LBH589 alone): 2%
colony survival compared to untreated cells (H460 cell lines; LBH589 1 hour and 18 hours prior to IR (0-6 Gy), 10 days proliferation): synergistic decrease in colony survival
plating efficiency (H460 cell lines; LBH589 alone for 1 hour, compared to the control): no reduced plating efficiency
plating efficiency (H460 cell lines; LBH589 alone for 18 hours): significantly reduced plating efficiency
number of apoptotic cells (H23 cell line [9]; 25 nM LBH589 18 hrs prior to 3 Gy, 20 hours later, control 7%): 30%
number of apoptotic cells (H23 cell line [9]; LBH589 alone 25 nM): only a minimal increase
HDAC4 nuclear localization (HDAC4 [10]): A similar effect was seen
HDAC4 nuclear localization (HDAC4 [11]; LBH589 added prior to IR 3 Gy): markedly limited HDAC4 nuclear localization
HDAC4 staining / localization (HDAC4 [11]; LBH589 alone): background HDAC4 staining in the cytoplasm and nucleus
